For 31 compounds, logP results are on record in the SangsterLogP compilation.

A word on the logP: it is the decadic logarithm of the partition coefficient of the neutral form, usually between octanol and water. High values mean higher lipophilicity, low ones lower lipophilicity.

Each structure is given as a SMILES string.

A short description of the data set: method code SF-AS, from Yamada, T.; Tsukamoto, Y.; Shimamura, H.; Banno, S.; Sato, M. (1983). Pyridazinones 4. synthesis anti secretory and anti ulcer activities of urea derivatives. Eur J Med Chem, 18(3)209-214.
As for `NC(=O)NCCCCCn1nc(-c2ccccc2)ccc1=O`, the lipophilicity (logP) came to 1.08.

With `CN(C)C(=O)NCCCCn1nc(-c2ccccc2)ccc1=O`, the log partition coefficient (logP) stood at 1.58.

For the compound `O=C(NCCCCn1nc(-c2ccccc2)ccc1=O)NC1CCCCC1`, the logP was found to be 1.99.

As for `CCCCNC(=O)NCCCCn1nc(-c2ccccc2)ccc1=O`, the lipophilicity (logP) was determined as 2.2.

`NC(=O)NCCCCn1nc(-c2ccccc2)ccc1=O` showed a logP of 1.21.

On to `CN(C)C(=O)NCCCCCn1nc(-c2ccccc2)ccc1=O`, for which the lipophilicity (logP) came out at 1.74.

For `CNC(=O)NCCCCCCCCn1nc(-c2ccccc2)ccc1=O`, the logP came to 0.84.

Compound `CCNC(=O)NCCCCCCn1nc(-c2ccccc2)ccc1=O` yielded a logP of 1.81.

`CNC(=O)NCCCCCn1nc(-c2ccccc2)ccc1=O` had a logP of 1.26.

Regarding `CC(C)NC(=O)NCCCCn1nc(-c2ccccc2)ccc1=O`, the lipophilicity (logP) turned out to be 1.91.

On to `O=C(NCCCCCn1nc(-c2ccccc2)ccc1=O)NC1CCCCC1`, for which the logP turned out to be 2.03.

For `CNC(=O)NCCCCCCCn1nc(-c2ccccc2)ccc1=O`, the lipophilicity (logP) turned out to be 1.06.

On to `NC(=O)NCCCn1nc(-c2ccccc2)ccc1=O`, for which the logP was determined as 0.69.

For the compound `CCN(CC)C(=O)NCCCCn1nc(-c2ccccc2)ccc1=O`, the logP is 1.89.

For the compound `CCNC(=O)NCCCCCn1nc(-c2ccccc2)ccc1=O`, the log partition coefficient (logP) was 1.76.

With `CNC(=O)NCCCCCCn1nc(-c2ccccc2)ccc1=O`, the log partition coefficient (logP) was 1.31.

In the case of `NC(=O)NCCn1nc(-c2ccccc2)ccc1=O`, the logP was 0.52.

As for `CNC(=O)NCCCCn1nc(-c2ccccc2)ccc1=O`, the logP was 1.23.

In the case of `O=C(NCCCCn1nc(-c2ccccc2)ccc1=O)Nc1ccccc1`, the log partition coefficient (logP) came to 2.32.

For `CNC(=O)NCCCn1nc(-c2ccccc2)ccc1=O`, the logP is 1.16.

`CCNC(=O)NCCCCn1nc(-c2ccccc2)ccc1=O` returned a log partition coefficient (logP) of 1.83.

Consider `CN(C)C(=O)NCCCn1nc(-c2ccccc2)ccc1=O`, for which the log partition coefficient (logP) turned out to be 1.61.

`CCNC(=O)NCCCn1nc(-c2ccccc2)ccc1=O` registered a logP of 1.68.

Regarding `CCN(CC)C(=O)NCCCn1nc(-c2ccccc2)ccc1=O`, the lipophilicity (logP) was found to be 1.72.

With `CCCNC(=O)NCCCCn1nc(-c2ccccc2)ccc1=O`, the lipophilicity (logP) was 1.71.

Compound `CN(C)C(=O)NCCCCCCn1nc(-c2ccccc2)ccc1=O` displayed a lipophilicity (logP) of 1.45.

The compound `CNC(=O)NCCn1nc(-c2ccccc2)ccc1=O` registered a log partition coefficient (logP) of 0.39.

Regarding `CC(C)(C)NC(=O)NCCCCn1nc(-c2ccccc2)ccc1=O`, the logP was 2.07.

As to `Cc1ccc(S(=O)(=O)NC(=O)NCCCCn2nc(-c3ccccc3)ccc2=O)cc1`, the logP was 1.77.

The compound `NC(=O)NCCCCCCn1nc(-c2ccccc2)ccc1=O` showed a logP of 1.82.

On to `CCN(CC)C(=O)NCCCCCCn1nc(-c2ccccc2)ccc1=O`, for which the logP was 1.85.
